{"source": "patent US20200155636A1", "about": "“Medicament and Beverage for Improving Joint and Bone Diseases” (priority 2017, published 2020)", "origin": "cited, not measured here", "details": "oral application", "data": [{"substance": "hyaluronic acid", "values": [{"measurement": "stability against gastric acid", "value": "survives the gastric acid"}, {"measurement": "absorption", "setting": "small intestine", "value": "absorbed in the small intestine"}]}]}
